Data as given in US20070128217A1 (priority 2003, published 2007).

Tests used:
[1] = tested on: rabbit serum obtained by immunizing a rabbit with the SARS-CoV strain Frankfurt 1; format: binding; design: Binding of a rabbit serum to linear peptides / Binding of a rabbit serum to looped peptides / Rabbit serum linear peptides / Rabbit serum looped peptides / Binding of a rabbit serum to linear peptides of protein N of SARS-CoV Urbani (Rabbit serum linear peptides) / Binding of a rabbit serum to looped/cyclic peptides of protein N of SARS-CoV Urbani (Rabbit serum looped peptides): unit not given here
[2] = tested on: antibodies in sera from SARS patients (sera 1a, 1b, 2, 6, 37, 62, London, SARS-yellow, SARS-green); format: binding, human; design: Binding of serum 6 to linear peptides of protein X1 of SARS-CoV Urbani / Binding of serum 37 to linear peptides of protein X1 of SARS-CoV Urbani / Binding of serum 6 to looped/cyclic peptide (PEPSCAN-ELISA) / Binding of serum 37 to looped/cyclic peptide (PEPSCAN-ELISA) / Binding of serum 37 to looped/cyclic peptides of protein X1 of SARS-CoV Urbani / Binding of serum 6 to linear peptides of protein X2 / Binding of serum 37 to linear peptides of protein X2 / Binding of serum 37 to looped/cyclic peptides of protein X2 of SARS-CoV Urbani / Binding of serum 6 to linear peptides of protein M of SARS-CoV Urbani / Binding of serum 37 to linear peptides of protein M of SARS-CoV Urbani / Binding of serum 6 to looped/cyclic peptides of protein M of SARS-CoV Urbani / Binding of serum 37 to looped/cyclic peptides of protein M of SARS-CoV Urbani / Binding of serum 6 to linear peptides of protein X3 of SARS-CoV Urbani / Binding of serum 37 to linear peptides of protein X3 of SARS-CoV Urbani / Binding of serum 37 to looped/cyclic peptides of protein X3 of SARS-CoV Urbani / Binding of serum 6 to linear peptides of protein X4 of SARS-CoV Urbani / Binding of serum 37 to linear peptides of protein X4 of SARS-CoV Urbani / Binding of serum 37 to looped/cyclic peptides of protein X4 of SARS-CoV Urbani / Binding of serum 6 to linear peptides of protein X5 of SARS-CoV Urbani / Binding of serum 37 to linear peptides of protein X5 of SARS-CoV Urbani / Binding of serum 37 to looped/cyclic peptides of protein X5 of SARS-CoV Urbani / Binding of serum 6 to linear peptides of protein N of SARS-CoV Urbani / Binding of serum 37 to linear peptides of protein N of SARS-CoV Urbani / Binding of serum 6 to linear peptide (PEPSCAN-ELISA) / Binding of serum 1a to looped/cyclic peptides of protein N of SARS-CoV Urbani / Binding of serum 1b to looped/cyclic peptides of protein N of SARS-CoV Urbani / Binding of serum 2 to looped/cyclic peptides of protein N of SARS-CoV Urbani / Binding of serum 6 to looped/cyclic peptides of protein N of SARS-CoV Urbani / Binding of serum 37 to looped/cyclic peptides of protein N of SARS-CoV Urbani / Binding of serum 62 to looped/cyclic peptides of protein N of SARS-CoV Urbani / Binding of serum London to looped/cyclic peptides of protein N of SARS-CoV Urbani / Binding of serum SARS-green to looped/cyclic peptides of protein N of SARS-CoV Urbani: unit not given here

Sequence | Recognition of the peptide by the rabbit serum [1] | Binding of serum 1a to linear peptides of protein X1 of SARS-CoV Urbani [2] | Binding of serum 1a to looped/cyclic peptide (PEPSCAN-ELISA) [2] | Binding of serum 1b to linear peptides of protein X1 of SARS-CoV Urbani [2] | Binding of serum 1b to looped/cyclic peptide (PEPSCAN-ELISA) [2] | Binding of serum 2 to linear peptides of protein X1 of SARS-CoV Urbani [2] | Binding of serum 2 to looped/cyclic peptide (PEPSCAN-ELISA) [2] | Binding of serum 6 to linear peptides of protein X1 of SARS-CoV Urbani [2] | Binding of serum 6 to looped/cyclic peptide (PEPSCAN-ELISA) [2] | Binding of serum 37 to linear peptides of protein X1 of SARS-CoV Urbani [2] | Binding of serum 37 to looped/cyclic peptide (PEPSCAN-ELISA) [2] | Binding of serum 62 to linear peptides of protein X1 of SARS-CoV Urbani [2] | Binding of serum 62 to looped/cyclic peptide (PEPSCAN-ELISA) [2] | Binding of serum London to linear peptides of protein X1 of SARS-CoV Urbani [2] | Binding of serum London to looped/cyclic peptide (PEPSCAN-ELISA) [2] | Binding of serum SARS-green to linear peptides of protein X1 of SARS-CoV Urbani [2] | Binding of serum SARS-green to looped/cyclic peptide (PEPSCAN-ELISA) [2] | Binding of serum SARS-yellow to linear peptides of protein X1 of SARS-CoV Urbani [2] | Binding of serum SARS-yellow to looped/cyclic peptide (PEPSCAN-ELISA) [2] | further results
SATKIIALNKRWQLA | recognized | 0.8 | 1.2 | 0.6 | 0.8 | 0.6 | 1.2 | 0.7 | 0.9 | 0.7 | 1.0 | 0.8 | 1.5 | 0.4 | 0.5 | 0.3 | 1.0 | 0.5 | 0.9 | –
TKIIALNKRWQLALY | recognized | 0.7 | 0.6 | 0.5 | 0.4 | 0.6 | 0.5 | 1.0 | 0.5 | 0.7 | 0.6 | 0.7 | 0.6 | 0.3 | 0.3 | 0.2 | 0.3 | 0.5 | 0.5 | –
TTVYHITVSQIQLSL | – | – | – | – | – | – | – | – | – | – | – | – | – | – | – | – | – | – | – | Binding of a rabbit serum to linear peptides [1]: 0.7; Binding of a rabbit serum to looped peptides [1]: 0.4; Binding of serum 1a to linear peptides of protein X2 [2]: 0.7; Binding of serum 1a to looped/cyclic peptides of protein X2 of SARS-CoV Urbani [2]: 0.5; Binding of serum 1b to linear peptides of protein X2 [2]: 0.5; Binding of serum 1b to looped/cyclic peptides of protein X2 of SARS-CoV Urbani [2]: 0.5; Binding of serum 2 to linear peptides of protein X2 [2]: 0.5; Binding of serum 2 to looped/cyclic peptides of protein X2 of SARS-CoV Urbani [2]: 0.3; Binding of serum 6 to linear peptides of protein X2 [2]: 0.5; Binding of serum 6 to looped/cyclic peptides of protein X2 of SARS-CoV Urbani [2]: 0.3; Binding of serum 37 to linear peptides of protein X2 [2]: 0.7; Binding of serum 37 to looped/cyclic peptides of protein X2 of SARS-CoV Urbani [2]: 0.4; Binding of serum 62 to linear peptides of protein X2 [2]: 0.6; Binding of serum 62 to looped/cyclic peptides of protein X2 of SARS-CoV Urbani [2]: 0.5; Binding of serum London to linear peptides of protein X2 [2]: 0.4; Binding of serum London to looped/cyclic peptides of protein X2 of SARS-CoV Urbani [2]: 0.2; Binding of serum SARS-green to linear peptides of protein X2 [2]: 0.1; Binding of serum SARS-green to looped/cyclic peptides of protein X2 of SARS-CoV Urbani [2]: 0.2; Binding of serum SARS-yellow to linear peptides of protein X2 [2]: 0.8; Binding of serum SARS-yellow to looped/cyclic peptides of protein X2 of SARS-CoV Urbani [2]: 0.4
VFQSATKIIALNKRW | recognized | 0.8 | 0.5 | 0.6 | 0.4 | 0.6 | 0.4 | 0.6 | 0.6 | 0.7 | 0.4 | 0.8 | 0.6 | 0.3 | 0.3 | 0.2 | 0.2 | 0.5 | 0.2 | –
